Experimental data from patent US6620779B2, “Method of enhancing the efficacy of anti-tumor agents” (Health Research Inc., priority 1999, dated 2003).
Entries after “also recorded” stand apart in the source; their conditions may differ.

What was measured:
[1] = system: human ovarian cancer xenografts (papillary serous adenocarcinoma of the ovary); assay: Large gonadal fat pad (GFP) human ovarian cancer xenograft in SCID mice, single cisplatin dose, tumor growth; assay type: in vivo, CB 17-SCID/SCID mice; details: large GFP tumors; cisplatin 5 mg/kg ip day 0; EPO 20 units sc three times per week day −15 to +6; necropsy day 7
Experimental: To illustrate this embodiment, experiments were carried out in immunodeficient SCID mice bearing human ovarian cancer.
Eighty CB 17-SCID/SCID mice (Taconic Labs) were used. The animals were kept under sterile and light-controlled conditions. Portions of tumors from patients with recurrent stage IIIC, grade 3, papillary serous adenocarcinoma of the ovary were implanted and propagated in SCID mice by procedures well known to those skilled in the art. Briefly, xenografts were grown and passaged at least five times prior to the implantation of tumors into experimental animals. […]
Automated hematocrits were obtained from tail bleeds performed on three mice selected randomly from each group on days −15, −7, 0, and +7. […] Tumors were excised and measured in three dimensions with vernier calipers. Tumor volume was calculated as follows. […]
The percent growth of the tumor was calculated using the formula: […]
(§1) Percent tumor growth was calculated for each index day compared to day 0 and plotted over time. […] The growth curves developed in the smaller subcutaneous tumor group and the curves representing change in the hematocrit over time were analyzed by analysis of variance. […]

[2] = system: human ovarian cancer xenografts; assay: Small subcutaneous human ovarian cancer xenograft in SCID mice, cisplatin on day 0 and 7, tumor growth curves; assay type: in vivo, CB 17-SCID/SCID mice; details: subcutaneous tumor nodules; cisplatin 5 mg/kg ip day 0 and 7; EPO 20 units sc three times per week day −15 to +13; to day +15; FIG. 1
Experimental: In another illustration of this embodiment, cisplatin was administered twice during the treatment. In additional forty experimental mice at six weeks of age, 2 mm portions of human ovarian cancer xenografts were implanted. Treatment groups were randomly assigned three days after implantation. Group I animals (controls) received 100 μl of PBS three times per week subcutaneously from day −15 to day +13 and 300 μl PBS ip on day 0 and 7. Mice in Group II (EPO group) received EPO subcutaneously at a dose of 20 units in 100 μl of PBS three times per week from day −15 to day +13 and 300 μl of PBS ip on day 0 and 7. Mice in Group III (cisplatin group) received cisplatin ip at a dose of 5 mg/kg in 300 μl of PBS on day 0 and 7, and 100 μl of subcutaneous PBS three times per week from day −15 to day +13. […]
Automated hematocrits were obtained as described above on days −15, −7, 0, +7, and +14. […] Tumor volumes were calculated on days 0, +1, +3, +5, +7, +9, +11, +13 and +15 using the formula. […]
as §1

[3] = Automated hematocrits from tail bleeds of tumor-bearing SCID mice; assay type: in vivo, CB 17-SCID/SCID mice; parameters: Hematocrits: unit not given here; details: for Hematocrits: mice bearing small subcutaneous tumors
Experimental: Automated hematocrits were obtained from tail bleeds performed on three mice selected randomly from each group on days −15, −7, 0, and +7. No mouse was bled twice. On day 7, mice were sacrificed and necropsies were performed. Tumors were excised and measured in three dimensions with vernier calipers. Tumor volume was calculated as follows.
In another illustration of this embodiment, cisplatin was administered twice during the treatment. In additional forty experimental mice at six weeks of age, 2 mm portions of human ovarian cancer xenografts were implanted. Treatment groups were randomly assigned three days after implantation. Group I animals (controls) received 100 μl of PBS three times per week subcutaneously from day −15 to day +13 and 300 μl PBS ip on day 0 and 7. Mice in Group II (EPO group) received EPO subcutaneously at a dose of 20 units in 100 μl of PBS three times per week from day −15 to day +13 and 300 μl of PBS ip on day 0 and 7. Mice in Group III (cisplatin group) received cisplatin ip at a dose of 5 mg/kg in 300 μl of PBS on day 0 and 7, and 100 μl of subcutaneous PBS three times per week from day −15 to day +13. Mice in Group IV (EPO+cisplatin group) received subcutaneous EPO injections as in group 2 three times per week from day −15 to day +13 and ip cisplatin injections as in group 3 on day 0 and 7. Mice were observed until day +15.
Automated hematocrits were obtained as described above on days −15, −7, 0, +7, and +14. The change in hematocrit relative to the initial hematocrit was plotted over time. Serial measurements of tumor nodules were made in two dimensions using vernier calipers starting on day zero. On day zero, tumors had grown to approximately 4 mm×5 mm in size in each group. Tumor volumes were calculated on days 0, +1, +3, +5, +7, +9, +11, +13 and +15 using the formula.
Percent tumor growth was calculated for each index day compared to day 0 and plotted over time. Statistical analysis included Student T tests for the overall tumor growth in the large GFP tumor experiment. The growth curves developed in the smaller subcutaneous tumor group and the curves representing change in the hematocrit over time were analyzed by analysis of variance. Significance was defined by P values less than 0.05.

[4] = Performance status (morbidity/mortality criteria) of treated tumor-bearing mice; assay type: in vivo, CB 17-SCID/SCID mice; parameters: key to Performance status score, individual mice: A grade of 0 equaled normal health; a grade of 5+ equaled death; details: for Performance status score, individual mice: mouse no. 1-10, Table 2 (counts match day +14)
Experimental: To illustrate this embodiment, performance status of mice from Example 1 receiving the various treatments was evaluated. Performance status was assessed on days 0, +7, and +14 using five objective criteria associated with morbidity and mortality in experimental mice. The five criteria were (1) ruffled fur; (2) weakness/lethargy; (3) 20% weight loss compared to the mean weight of control animals; (4) kyphotic hunched posturing; and (5) death. A grade of 0 equaled normal health and a grade of 5+ equaled death.

[5] = in vivo; cited from earlier work

Row | Compound | Tumor growth (percent tumor growth, tumor size at necropsy) [1] | Tumor growth curves (percent tumor growth vs day 0) [2] | Hematocrits ([3]; Week 0) | Hematocrits ([3]; Week +1) | Hematocrits ([3]; Week +2) | Hematocrits ([3]; Week −1) | Hematocrits ([3]; Week −2 (initial value)) | Increase in the hematocrit compared to its initial value ([3]; vs week −2, p<0.01 vs controls, FIG. 2) | Performance status scores ([4]; day +7, all mice of the group) | Performance status score, individual mice [4] | Performance status score, Total ([4]; sum over 10 mice, Table 2) | Half life in the plasma [5] | Decrease in the hematocrit ([3]; over time vs initial value, FIG. 2) | Mice with 20% weight loss compared to controls ([4]; day +7, 10 mice per group) | Mice with ruffled fur ([4]; day +7, 10 mice per group) | Mice with signs of weakness/lethargy ([4]; day +7, 10 mice per group) | Mice with hunched posturing ([4]; day +14, 10 mice per group) | Mortalities ([4]; day +14, 10 mice per group)
1 | EPO: erythropoietin, hormone regulating red blood cell production; used as hematocrit elevator | No difference was observed between the controls and the EPO group | no difference was observed between the controls and the EPO group | 48.9 ± 0.3 | 49.3 ± 0.3 | 53.6 ± 0.4 | 44.9 ± 0.2 | 39.5 ± 0.2 | 25-35% | zero | 0 | 0 | about 5 hours | – | – | – | – | – | –
2 | N.N.[Cl][Pt][Cl] [CISPLATIN, cis-diamine dichloro platinum] | significant difference in the tumor growth was observed in the groups treated with and without cisplatin | – | 39.8 ± 0.3 | 40.7 ± 0.1 | 33.1 ± 0.3 | 39.8 ± 0.2 | 39.8 ± 0.2 | – | – | + + +; also recorded: + + + +; also recorded: + + + + + | – | – | 20% | 6 | all | all | 3 | 4
